Test results: patent publication US20150231236A1, “METHODS FOR TREATING PATIENTS WITH HYPERCHOLESTEROLEMIA THAT IS NOT ADEQUATELY CONTROLLED BY MODERATE-DOSE STATIN THERAPY” (Regeneron Pharmaceuticals, Inc., priority 2014, published 2015)

Tested on: patients with hypercholesterolemia at high CV risk not adequately controlled with atorvastatin (20 mg or 40 mg)
Assay: Example 2: randomized, double-blind trial, lipid efficacy of mAb316P add-on to atorvastatin vs EZE add-on, atorvastatin dose doubling or switch to rosuvastatin
Format: in vivo, human
Conditions: for reduced LDL-C levels by: week 24, add-on mAb316P
In short: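 Patients on atorvastatin 20 or 40 mg randomized to mAb316P 75 mg SC Q2W (raised to 150 mg from week 12 per CV risk) or blinded comparators, over 24 weeks. Endpoint: percent change in calculated LDL-C (Friedewald; beta quantification if TG >400 mg/dL) from baseline to week 24.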

[1] = ITT Population, Comparison 1: mAb316P + atorva 20 mg arm vs. atorva 40 mg arm
[2] = ITT Population, Comparison 2: mAb316P + atorva 20 mg arm vs. EZE + atorva 20 mg arm
[3] = ITT Population, Comparison 3: mAb316P + atorva 40 mg arm vs. atorva 80 mg arm
[4] = ITT Population, Comparison 4: mAb316P + atorva 40 mg arm vs. rosuva 40 mg arm
[5] = ITT Population, Comparison 5: mAb316P + atorva 40 mg arm vs. EZE + atorva 40 mg arm
[6] = mITT Population, Comparison 1: mAb316P + atorva 20 mg arm vs. atorva 40 mg arm
[7] = mITT Population, Comparison 2: mAb316P + atorva 20 mg arm vs. EZE + atorva 20 mg arm
[8] = mITT Population, Comparison 3: mAb316P + atorva 40 mg arm vs. atorva 80 mg arm
[9] = mITT Population, Comparison 4: mAb316P + atorva 40 mg arm vs. rosuva 40 mg arm
[10] = mITT Population, Comparison 5: mAb316P + atorva 40 mg arm vs. EZE + atorva 40 mg arm

“mAb316P: human anti-PCSK9 antibody; heavy chain SEQ ID NO:5, light chain SEQ ID NO:9” was tested, and the “Delta, percent change from baseline of Apo B to week 24” value [1] was −29.3%, the “Delta, percent change from baseline of Apo-B to week 12” value [1] was −31.5% and the “Delta, percent change from baseline of HDL-C to week 24” value [1] was 2.9%. For the same substance, the “Delta, percent change from baseline of Lp(a) to week 24” value [1] was −3.4%, the “Delta, percent change from baseline of Non-HDL-C to week 12” value [1] was −33.5% and the “Delta, percent change from baseline of Total-C to week 12” value [1] was −22.6%. The “Delta, percent change from baseline of Total-C to week 24” value [1] was −23.1%, the “Delta, percent change from baseline of calculated LDL-C to week 12” value [1] was −39.8% and the “Delta, percent change from baseline of calculated LDL-C to week 24” value [1] was −39.1%. For the same substance, the “Delta, percent change from baseline of non-HDL-C to week 24” value [1] was −30.4%, the “Odds Ratio, proportion of patients reaching calculated LDL-C < 70 mg/dL at Week 24” value [1] was 28.9 and the “Odds Ratio, proportion of very high CV risk patients reaching calculated LDL-C < 70 mg/dL or high CV risk patients reaching calculated LDL-C < 100 mg/dL at Week 24” value [1] was 16.3. The “Delta, percent change from baseline of Apo B to week 24” value [2] was −23.6%, the “Delta, percent change from baseline of Apo-B to week 12” value [2] was −25.3% and the “Delta, percent change from baseline of HDL-C to week 24” value [2] was 4.9%. The “Delta, percent change from baseline of Lp(a) to week 24” value [2] was −13.0%, the “Delta, percent change from baseline of Non-HDL-C to week 12” value [2] was −23.4% and the “Delta, percent change from baseline of Total-C to week 12” value [2] was −15.8%. For the same substance, the “Delta, percent change from baseline of Total-C to week 24” value [2] was −15.8%, the “Delta, percent change from baseline of calculated LDL-C to week 12” value [2] was −25.8% and the “Delta, percent change from baseline of calculated LDL-C to week 24” value [2] was −23.6%. For the same substance, the “Delta, percent change from baseline of non-HDL-C to week 24” value [2] was −21.6%, the “Odds Ratio, proportion of patients reaching calculated LDL-C < 70 mg/dL at Week 24” value [2] was 4.7 and the “Odds Ratio, proportion of very high CV risk patients reaching calculated LDL-C < 70 mg/dL or high CV risk patients reaching calculated LDL-C < 100 mg/dL at Week 24” value [2] was 3.7. For the same substance, the “Delta, percent change from baseline of Apo B to week 24” value [3] was −38.4%, the “Delta, percent change from baseline of Apo-B to week 12” value [3] was −26.7% and the “Delta, percent change from baseline of HDL-C to week 24” value [3] was 2.9%. The “Delta, percent change from baseline of Lp(a) to week 24” value [3] was −21.1%, the “Delta, percent change from baseline of Non-HDL-C to week 12” value [3] was −29.3% and the “Delta, percent change from baseline of Total-C to week 12” value [3] was −19.1%. The “Delta, percent change from baseline of Total-C to week 24” value [3] was −28.9%, the “Delta, percent change from baseline of calculated LDL-C to week 12” value [3] was −36.0% and the “Delta, percent change from baseline of calculated LDL-C to week 24” value [3] was −49.2%. For the same substance, the “Delta, percent change from baseline of non-HDL-C to week 24” value [3] was −41.1%, the “Odds Ratio, proportion of patients reaching calculated LDL-C < 70 mg/dL at Week 24” value [3] was 116.8 and the “Odds Ratio, proportion of very high CV risk patients reaching calculated LDL-C < 70 mg/dL or high CV risk patients reaching calculated LDL-C < 100 mg/dL at Week 24” value [3] was 92.5. For the same substance, the “Delta, percent change from baseline of Apo B to week 24” value [4] was −30.9%, the “Delta, percent change from baseline of Apo-B to week 12” value [4] was −22.2% and the “Delta, percent change from baseline of HDL-C to week 24” value [4] was 2.0%. For the same substance, the “Delta, percent change from baseline of Lp(a) to week 24” value [4] was −25.9%, the “Delta, percent change from baseline of Non-HDL-C to week 12” value [4] was −22.5% and the “Delta, percent change from baseline of Total-C to week 12” value [4] was −15.4%. For the same substance, the “Delta, percent change from baseline of Total-C to week 24” value [4] was −21.9%, the “Delta, percent change from baseline of calculated LDL-C to week 12” value [4] was −27.3% and the “Delta, percent change from baseline of calculated LDL-C to week 24” value [4] was −32.6%. For the same substance, the “Delta, percent change from baseline of non-HDL-C to week 24” value [4] was −30.2%, the “Odds Ratio, proportion of patients reaching calculated LDL-C < 70 mg/dL at Week 24” value [4] was 13.2 and the “Odds Ratio, proportion of very high CV risk patients reaching calculated LDL-C < 70 mg/dL or high CV risk patients reaching calculated LDL-C < 100 mg/dL at Week 24” value [4] was 6.1. For the same substance, the “Delta, percent change from baseline of Apo B to week 24” value [5] was −27.6%, the “Delta, percent change from baseline of Apo-B to week 12” value [5] was −15.9% and the “Delta, percent change from baseline of HDL-C to week 24” value [5] was 5.6%. For the same substance, the “Delta, percent change from baseline of Lp(a) to week 24” value [5] was −31.0%, the “Delta, percent change from baseline of Non-HDL-C to week 12” value [5] was −14.8% and the “Delta, percent change from baseline of Total-C to week 12” value [5] was −9.8%. The “Delta, percent change from baseline of Total-C to week 24” value [5] was −18.4%, the “Delta, percent change from baseline of calculated LDL-C to week 12” value [5] was −20.9% and the “Delta, percent change from baseline of calculated LDL-C to week 24” value [5] was −31.4%. The “Delta, percent change from baseline of non-HDL-C to week 24” value [5] was −26.6%, the “Odds Ratio, proportion of patients reaching calculated LDL-C < 70 mg/dL at Week 24” value [5] was 9.9 and the “Odds Ratio, proportion of very high CV risk patients reaching calculated LDL-C < 70 mg/dL or high CV risk patients reaching calculated LDL-C < 100 mg/dL at Week 24” value [5] was 7.9. For the same substance, the “patients achieving the more stringent LDL-C goal of <70 mg/dL” value (Week 24, calculated LDL-C, across atorvastatin 20 mg and 40 mg regimens) was 77-79%, the “reduced LDL-C levels by” value (atorvastatin 20 mg regimen, add-on ezetimibe or doubling of atorvastatin dose) was 44.1% and the “reduced LDL-C levels by” value (atorvastatin 40 mg regimen, add-on ezetimibe, doubling of atorvastatin dose or switch to rosuvastatin 40 mg) was 54.0%. The “Delta, percent change from baseline of Apo B to week 24” value [6] was −32.6%, the “Delta, percent change from baseline of calculated LDL-C to week 12” value [6] was −44.5% and the “Delta, percent change from baseline of calculated LDL-C to week 24” value [6] was −42.5%. The “Delta, percent change from baseline of non-HDL-C to week 24” value [6] was −33.0%, the “Odds Ratio, proportion of patients reaching calculated LDL-C < 70 mg/dL at Week 24” value [6] was 28.8 and the “Odds Ratio, proportion of very high CV risk patients reaching calculated LDL-C < 70 mg/dL or high CV risk patients reaching calculated LDL-C < 100 mg/dL at Week 24” value [6] was 24.6. The “Delta, percent change from baseline of Apo B to week 24” value [7] was −25.1%, the “Delta, percent change from baseline of calculated LDL-C to week 12” value [7] was −26.6% and the “Delta, percent change from baseline of calculated LDL-C to week 24” value [7] was −24.9%. The “Delta, percent change from baseline of non-HDL-C to week 24” value [7] was −22.4%, the “Odds Ratio, proportion of patients reaching calculated LDL-C < 70 mg/dL at Week 24” value [7] was 4.8 and the “Odds Ratio, proportion of very high CV risk patients reaching calculated LDL-C < 70 mg/dL or high CV risk patients reaching calculated LDL-C < 100 mg/dL at Week 24” value [7] was 5.0. The “Delta, percent change from baseline of Apo B to week 24” value [8] was −38.3%, the “Delta, percent change from baseline of calculated LDL-C to week 12” value [8] was −36.3% and the “Delta, percent change from baseline of calculated LDL-C to week 24” value [8] was −52.8%. The “Delta, percent change from baseline of non-HDL-C to week 24” value [8] was −43.6%, the “Odds Ratio, proportion of patients reaching calculated LDL-C < 70 mg/dL at Week 24” value [8] was 162.1 and the “Odds Ratio, proportion of very high CV risk patients reaching calculated LDL-C < 70 mg/dL or high CV risk patients reaching calculated LDL-C < 100 mg/dL at Week 24” value [8] was 130.8. The “Delta, percent change from baseline of Apo B to week 24” value [9] was −29.8%, the “Delta, percent change from baseline of calculated LDL-C to week 12” value [9] was −27.7% and the “Delta, percent change from baseline of calculated LDL-C to week 24” value [9] was −35.0%. The “Delta, percent change from baseline of non-HDL-C to week 24” value [9] was −32.1%, the “Odds Ratio, proportion of patients reaching calculated LDL-C < 70 mg/dL at Week 24” value [9] was 19.8 and the “Odds Ratio, proportion of very high CV risk patients reaching calculated LDL-C < 70 mg/dL or high CV risk patients reaching calculated LDL-C < 100 mg/dL at Week 24” value [9] was 8.5. The “Delta, percent change from baseline of Apo B to week 24” value [10] was −26.4%, the “Delta, percent change from baseline of calculated LDL-C to week 12” value [10] was −20.2% and the “Delta, percent change from baseline of calculated LDL-C to week 24” value [10] was −33.4%. The “Delta, percent change from baseline of non-HDL-C to week 24” value [10] was −27.3%, the “Odds Ratio, proportion of patients reaching calculated LDL-C < 70 mg/dL at Week 24” value [10] was 13.9 and the “Odds Ratio, proportion of very high CV risk patients reaching calculated LDL-C < 70 mg/dL or high CV risk patients reaching calculated LDL-C < 100 mg/dL at Week 24” value [10] was 10.8.
